The text below walks through data of paper PMC8460535, “Novel serotonin 5-HT2A receptor antagonists derived from 4-phenylcyclohexane-5-spiro-and 5-methyl-5-phenyl-hydantoin, for use as potential antiplatelet agents” (Pharmacological Reports, 2021).

Molecules are shown by their SMILES. Values joined by “and” are separate entries in the source; they are usually repeats but may differ in a detail not shown here. Identical values can stand only once. Like-named read-outs stand apart in the source and are kept apart here.

The target of data set [1] is T1, human 5-HT2A receptor (Homo sapiens, UniProt P28223).
T1 construct: purchased PerkinElmer; host or cells: CHO-K1 cells, stably transfected
In words: 5-HT2A receptor radioligand binding assay ([3H]-ketanserin, CHO-K1 membranes). As to conditions: read-out: Ki [nM] ± SEM. As to the method:
Stock solutions of tested compounds (10 mM) were prepared in DMSO. […] Each compound was tested in eight concentrations from 10^–5 to 10^–12 M (final concentration).
Radioligand binding was performed using membranes from CHO-K1 cells stably transfected with the human 5-HT2A receptor (PerkinElmer). All assays were carried out in duplicates. Data were fitted to a one-site curve-fitting equation with Prism 6 (GraphPad Software) and Ki values were estimated from the Cheng − Prusoff equation. The full description of this assay is in Supplementary material.
Mianserin (10 μM) was used to define nonspecific binding. […] The reaction was terminated by rapid filtration through GF/B filter mate presoaked with 0.5% polyethyleneimine for 30 minutes. Ten rapid washes with 200 µl 50 mM Tris buffer (4°C, pH 7.4) were performed using automated harvester system Harvester-96 MACH III FM (Tomtec). […] Radioactivity was counted in MicroBeta2 scintillation counter (PerkinElmer).

Data set [2] concerns the target T2, 5-HT2A receptors in rat aorta (Rattus norvegicus, UniProt P14842).
T2 construct: Isolated rat aorta was used to determine the antagonistic activity of studied compounds for 5HT2A-receptors; from tissue; host or cells: aortic rings of male Wistar rats, denuded of the endothelium
The experiment in a line: Functional bioassay at 5-HT2A receptors in isolated rat aorta (5-HT-induced contraction). The class given is cell-based. As to conditions: single antagonist concentration, 30 min incubation, read-out: pKB ± SEM a (converted). The procedure: Isolated rat aorta was used to determine the antagonistic activity of studied compounds for 5HT2A-receptors. The male Wistar rats weighting 200–350 g were anesthetized with thiopental sodium (75 mg/kg i.p.) and the aorta was dissected and placed in a Krebs–Henseleit solution (NaCl 118 mM, KCl 4.7 mM, CaCl2 2.25 mM, MgSO4 1.64 mM, KH2PO4 1.18 mM, NaHCO3 24.88 mM, glucose 10 mM, C3H3O3Na 2.2 mM, EDTA 0.05 mM), denuded of the endothelium, cleaned of surrounding fat tissues and cut into 4-mm-long rings. The aortic rings were incubated in 30 ml chambers filled with a Krebs–Henseleit solution at 37 °C and pH 7.4 with constant oxygenation (O2/CO2, 19:1). Two stainless steel stirrups were inserted through the lumen of each aortic segment: one stirrup was attached to the bottom of the chamber and the other to an isometric FDT10-A force–displacement transducer (BIOPAC Systems, Inc., COMMAT Ltd., Turkey). The aortic rings were stretched and maintained at optimal tension of 2 g and allowed to equilibrate for 2 h.
After the equilibration period, the aortic rings were contracted to maximal tension with KCl (60 mM). The depolarizing solution KCl (60 mM) was obtained by equimolar substitution of […]. Then the cumulative concentration–response curves to 5-HT were determined in the absence and presence of antagonist. Tissues were incubated with antagonists for 30 min.
Concentration–response curves were analyzed using GraphPad Prism 6.0 software (GraphPad Software Inc., San Diego, CA, USA). […] Data are the mean ± SEM of three separate experiments. The affinity was estimated with the equation pKB = log(concentration ratio–1)-log(molar antagonist concentration), where the concentration ratio is the ratio of equi-effective agonist concentrations in the absence and in the presence of the antagonist.

Data set [3] has as its target T1, human 5-HT2A receptor. In words: Aequorin luminescence-based intracellular calcium assay in CHO cells expressing human 5-HT2A. The class given is cell-based. Conditions: cells expressing human 5-HT2A receptors, antagonist mode vs α-methylserotonin 30 nM; read-out: pKB ± SEM b (converted). The procedure: Tested and reference compounds were dissolved in DMSO at a concentration of 10^–2 M. Serial dilutions were prepared in 96-well microplate in assay buffer and eight to ten concentrations were tested.
A cellular aequorin-based functional assay was performed with recombinant Chinese hamster ovary cells expressing mitochondrially targeted aequorin, human G-protein-coupled receptors, and the promiscuous G protein α16 for 5-HT2A. The full description of this assay is in Supplementary materials.
A cellular aequorin-based functional assay was performed with recombinant Chinese hamster ovary cells expressing mitochondrially targeted aequorin, human G-protein-coupled receptors and the promiscuous G protein α16 for 5-HT2A. After thawing, cells were transferred to assay buffer (Dulbecco's Modified Eagle Medium/HAM’s F12 with 0.1% protease free bovine serum albumin) and centrifuged. The cell pellet was resuspended in assay buffer and coelenterazine h was added at final concentrations of 5 μM. The cells suspension was incubated at 16°C, protected from light with constant agitation for 16 h and then diluted with assay buffer to the concentration of 120,000 cells/ml. After 1 h of incubation, 50 μl of the cells suspension was dispensed using automatic injectors built into the radiometric and luminescence plate counter MicroBeta2 LumiJET (PerkinElmer, USA) into white opaque 96-well microplates preloaded with test compounds. Immediate light emission generated following calcium mobilization was recorded for 30 s. In antagonist mode, after 30 min of incubation the reference agonist was added to the above assay mix and light emission was recorded again. Final concentration of the reference agonist was equal to EC80 of α-methylserotonin (30 nM).

In data set [4] the test system is whole rat blood aggregation induced by 5-HT and collagen. In words: In vitro whole rat blood aggregation induced by 5-HT and sub-threshold collagen. The class given is cell-based. Conditions: 5-HT 30 μM and collagen 0.8 μg/ml, read-out: b (5-HT + collagen) IC50. The procedure: (§1) In vitro aggregation assays were performed using freshly drawn whole rat blood with a Multiplate platelet function analyzer (Roche Diagnostic), the five-channel aggregometer based on measurements of electric impedance. Blood was collected from carotid arteries with a hirudin blood tube (Roche Diagnostic). 300 μl of hirudin anticoagulated blood was mixed with 300 μl prewarmed isotonic saline solution containing studied compound or vehicle (deionized water or DMSO 0.1%) and preincubated for 3 min at 37 °C with continuous stirring. Aggregation was induced by adding collagen (Hyphen-Biomed, France) (final concentration 1.6 µg/ml), 5-HT (30 µM) and sub-threshold concentration of collagen (0.8 µg/ml), 5-HT (6 µM) and sub-threshold concentration of ADP (ADP test, Roche Diagnostic), (1.6 µM). The aggregation process was recorded for 6 min. Ketanserin (ketanserin ( +) tartrate salt, Sigma-Aldrich, Germany), sarpogrelate (sarpogrelate hydrochloride, Sigma-Aldrich, Germany), and aspirin (Tocris, UK) were used as reference compounds. The Multiplate software analyzed the area under the curve (AUC) of the clotting process of each measurement and calculated the mean values. Each concentration of studied compounds was tested at least three times. The exact sample size (n value) is presented on Figs. 2–4. Concentration-inhibition curves were constructed and analyzed by non-linear curve fitting using GraphPad Prism 6.0 (GraphPad Software Inc., San Diego, CA, USA).

Data set [5] has as its system whole rat blood aggregation induced by 5-HT and ADP. In words: In vitro whole rat blood aggregation induced by 5-HT and sub-threshold ADP. The class given is cell-based. Conditions: for IC50: 5-HT 6 μM and ADP 1.6 μM, na = not active, read-out: c (5-HT + ADP) IC50. The procedure:
as §1

In data set [6] the target is 5-HT2A receptor. As to conditions: cited from earlier work.
Data set [7] relates to whole rat blood aggregation induced by 5-HT and ADP. Set-up: method as in PMID 29111111. Conditions: 5-HT 6 μM and ADP 1.6 μM, already published, read-out: c (5-HT + ADP) IC50; cited from earlier work.
Data set [8] has as its system whole rat blood aggregation induced by collagen. In words: In vitro whole rat blood aggregation induced by collagen (Multiplate). The class given is cell-based. Conditions: collagen 1.6 μg/ml, na = not active. The procedure:
as §1

[9] abbreviates: literature values, no reference given, read-out: 5-HT2A: Ki of conventional antagonists.

T1 sequence (P28223 whole entry): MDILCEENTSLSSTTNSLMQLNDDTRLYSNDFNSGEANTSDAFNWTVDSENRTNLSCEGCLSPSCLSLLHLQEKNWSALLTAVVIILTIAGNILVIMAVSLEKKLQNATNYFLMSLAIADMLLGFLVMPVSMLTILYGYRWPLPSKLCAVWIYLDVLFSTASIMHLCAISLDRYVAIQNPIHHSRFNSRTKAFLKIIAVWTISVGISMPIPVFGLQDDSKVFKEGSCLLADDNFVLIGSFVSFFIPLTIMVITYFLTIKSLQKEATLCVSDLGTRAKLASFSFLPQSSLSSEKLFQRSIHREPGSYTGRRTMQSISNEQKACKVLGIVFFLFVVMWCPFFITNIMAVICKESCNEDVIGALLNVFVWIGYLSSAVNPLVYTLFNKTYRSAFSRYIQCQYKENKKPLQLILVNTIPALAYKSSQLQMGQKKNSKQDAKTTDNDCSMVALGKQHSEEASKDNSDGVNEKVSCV
T2 sequence (P14842 whole entry): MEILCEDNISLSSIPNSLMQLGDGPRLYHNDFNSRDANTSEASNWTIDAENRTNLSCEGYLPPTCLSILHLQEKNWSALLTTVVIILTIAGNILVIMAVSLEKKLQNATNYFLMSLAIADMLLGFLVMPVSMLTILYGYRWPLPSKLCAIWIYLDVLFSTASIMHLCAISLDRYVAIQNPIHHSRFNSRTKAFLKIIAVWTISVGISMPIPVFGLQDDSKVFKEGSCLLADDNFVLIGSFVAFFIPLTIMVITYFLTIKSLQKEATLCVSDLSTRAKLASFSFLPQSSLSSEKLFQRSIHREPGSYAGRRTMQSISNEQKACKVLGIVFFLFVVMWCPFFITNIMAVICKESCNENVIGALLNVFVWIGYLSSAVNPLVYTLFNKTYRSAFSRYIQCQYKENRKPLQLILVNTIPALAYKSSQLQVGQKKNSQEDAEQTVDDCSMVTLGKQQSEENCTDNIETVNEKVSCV

A word on the melting point: it is the temperature, or range, at which the solid turns liquid. A word on the Ki: it is the equilibrium dissociation constant of an inhibitor or competing ligand from its target. The compound `O=C(c1ccc(F)cc1)N1CCN(CCCN2C(=O)NC3(CCC(c4ccccc4)CC3)C2=O)CC1` (stereo not shown) [Compound 12, 3-(3-(4-(4-Fluorobenzoyl)piperazin-1-yl)propyl)-8-phenyl-1,3-diazaspiro[4.5]decane-2,4-dione] yielded a melting point of 203 to 205 °C. Further, in data set [1], the inhibition constant Ki was 2580 ± 302 nM.
In general, IC50 refers to the concentration that gives 50% inhibition. Regarding `O=C1NC2(CCC(c3ccccc3)CC2)C(=O)N1CCCN1CCN(c2ccccc2F)CC1` (stereo not shown) [Compound 9, 3-(3-(4-(2-Fluorophenyl)piperazin-1-yl)propyl)-8-phenyl-1,3-diazaspiro[4.5]decane-2,4-dione], the Kb is 0.0959 µM in data set [2] and 1.99 µM in [3]. In addition, the IC50 in data set [4] stood at 139 ± 16.1 µM. In addition, the Ki in data set [1] was 220 ± 19.6 nM.
The compound `O=C1NC2(CCC(c3ccccc3)CC2)C(=O)N1CCN1CCN(C(c2ccccc2)c2ccccc2)CC1` (stereo not shown) [Compound 8, 3-(2-(4-Benzhydrylpiperazin-1-yl)ethyl)-8-phenyl-1,3-diazaspiro[4.5]decane-2,4-dione] gave a melting point of 243 to 245 °C.
Take `CC1(c2ccccc2)NC(=O)N(CCCN2CCN(c3cccc(F)c3)CC2)C1=O` (stereo not shown) [Compound 4, 3-(3-(4-(3-Fluorophenyl)piperazin-1-yl)propyl)-5-methyl-5-phenylimidazolidine-2,4-dione]: the Kb in data set [2] is 0.44 µM; in data set [3] it was 9.23 µM. The results for the IC50 in [5] and in data set [4] were 83.1 ± 8.1 µM and 153 ± 26.4 µM, respectively. The Ki in data set [1] was determined as 340 ± 57 nM.
In the same order, the values of `O=C1NC2(CCC(c3ccccc3)CC2)C(=O)N1CCCN1CCN(c2ccc(F)cc2)CC1` (stereo not shown) [Compound 11, 3-(3-(4-(4-Fluorophenyl)piperazin-1-yl)propyl)-8-phenyl-1,3-diazaspiro[4.5]decane-2,4-dione] are 0.0372 µM, 0.175 µM, 140 ± 44.6 µM, 91.3 ± 7.1 µM and 21 ± 1.7 nM.
With `O=C(c1ccc(F)cc1)C1CCN(CCn2c(=O)[nH]c3ccccc3c2=O)CC1` [Ketanserin, reference compound], the Ki in [6] (setting [9]) was 0.002 µM. The IC50 was 9.7 ± 2.1 µM in [7], 1.3 µM in [4] and 32.1 ± 3 µM in data set [8].
The compound `CC(=O)Oc1ccccc1C(=O)O` [Aspirin] yielded an IC50 in data set [8] of 14.5 ± 1.1 µM.
Take `CC1(c2ccccc2)NC(=O)N(CCCN2CCN(c3ccc(F)cc3)CC2)C1=O` (stereo not shown) [Compound 5, 3-(3-(4-(4-Fluorophenyl)piperazin-1-yl)propyl)-5-methyl-5-phenylimidazolidine-2,4-dione]: the Kb in [2] is 0.11 µM; in [3], 9.29 µM. For the same compound, the concentration for half-maximal inhibition (IC50) came to 124 ± 36.2 µM in data set [5] and 127 ± 32.7 µM in data set [4]. The inhibition constant (Ki) in [1] turned out to be 48 ± 4.9 nM.
For the compound `O=C(c1ccc(F)cc1)N1CCN(CCN2C(=O)NC3(CCC(c4ccccc4)CC3)C2=O)CC1` (stereo not shown) [Compound 7, 3-(2-(4-(4-Fluorobenzoyl)piperazin-1-yl)ethyl)-8-phenyl-1,3-diazaspiro[4.5]decane-2,4-dione], the melting point was 224 to 226 °C.
On to `CC1(c2ccccc2)NC(=O)N(CCN2CCN(C(c3ccccc3)c3ccccc3)CC2)C1=O` (stereo not shown) [Compound 2, 3-(2-(4-Benzhydrylpiperazin-1-yl)ethyl)-5-methyl-5-phenylimidazolidine-2,4-dione], for which the Kb in data set [2] was 0.69 µM; in [3], 1.97 µM. The “inhibitory effect on ADP- and 5-HT-induced blood aggregation” value in [5] (at a concentration of 200 μM) is “did not exhibit any significant inhibitory effect”. For the same compound, the IC50 in [4] was found to be 140 ± 18.9 µM. Moreover, in data set [1], the Ki turned out to be 450 ± 43.9 nM.
For `CC1(c2ccccc2)NC(=O)N(CCCN2CCN(c3ccccc3F)CC2)C1=O` (stereo not shown) [Compound 3, 3-(3-(4-(2-Fluorophenyl)piperazin-1-yl)propyl)-5-methyl-5-phenylimidazolidine-2,4-dione], the Kb in [2] is 0.216 µM; in data set [3], ~0.175 µM and 0.175 µM. For the same compound, the IC50 in [5] was determined as 37.9 ± 6.5 µM; in [4], 17.4 ± 10.9 µM. Moreover, in data set [1], the Ki was determined as 516 ± 52 nM.
Take `O=S1(=O)c2cccc3cccc(c23)N1CCCN1CCN(c2ccc(F)cc2)CC1` [fananserin, reference compound]: the Ki in data set [6] (setting [9]) was 0.00037 µM.
Turning to `CC1(c2ccccc2)NC(=O)N(CCCN2CCN(C(=O)c3ccc(F)cc3)CC2)C1=O` (stereo not shown) [Compound 6, 3-(3-(4-(4-Fluorobenzoyl)piperazin-1-yl)propyl)-5-methyl-5-phenylimidazolidine-2,4-dione], the melting point lay within 72 to 74 °C.
Same read-out and setting: the same measure for `CC1(c2ccccc2)NC(=O)N(CCN2CCN(C(=O)c3ccc(F)cc3)CC2)C1=O` (stereo not shown) [Compound 1, 3-(2-(4-(4-Fluorobenzoyl)piperazin-1-yl)ethyl)-5-methyl-5-phenylimidazolidine-2,4-dione]: 117 to 119 °C.
`O=C1NC2(CCC(c3ccccc3)CC2)C(=O)N1CCCN1CCN(c2cccc(F)c2)CC1` (stereo not shown) [Compound 10, 3-(3-(4-(3-Fluorophenyl)piperazin-1-yl)propyl)-8-phenyl-1,3-diazaspiro[4.5]decane-2,4-dione]: the Kb in [2] is 0.501 µM. Also, the IC50 was 119 ± 32.1 µM in [5] and 94.3 ± 53.5 µM in data set [4]. In addition, the Ki in data set [1] was determined as 297 ± 19.9 nM.
In the case of `CC1(c2ccccc2)NC(=O)N(CCCN2CCN(c3ccccc3)CC2)C1=O` (stereo not shown) [compound B], the Ki in [6] (5-HT2A receptors, previous studies, read-out: Ki (5-HT2A) of earlier hydantoin leads) was 0.069 µM.
